This passage reports IC50 results from patent US11912703B2, “6-azaindole compounds” (BRISTOL-MYERS SQUIBB COMPANY, priority 2017, dated 2024).

Usually IC50 stands for the concentration at which inhibition is half-maximal.

Where two headings read alike, the source gives them in different places. Some results are limits rather than exact numbers.

The target in assay [1] is human TLR8 (Homo sapiens (Human), UniProt Q9NR97). The experiment in a line: TLR8 inhibition reporter assay (HEK-Blue SEAP).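 Note: SEAP driven by IFN-β minimal promoter with five NF-κB and AP-1 sites, compounds tested 0.05 nM to 50 µM, 22 h incubation, inhibition relative to agonist plus DMSO wells.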 A general note: In a reporter assay the amount or activity of a reporter protein is the signal.
Description: (§1) HEK-Blue™-cells (Invivogen) overexpressing human TLR7, TLR8 or TLR9 receptors were used for screening inhibitors of these receptors using an inducible SEAP (secreted embryonic alkaline phosphatase) reporter gene under the control of the IFN-β minimal promoter fused to five NF-κB and AP-1-binding sites. Briefly, cells are seeded into Greiner 384 well plates (15000 cells per well for TLR7, 20,000 for TLR8 and 25,000 for TLR9) and then treated with test compounds in DMSO to yield a final dose response concentration range of 0.05 nM-50 μM. After a 30 minute compound pre-treatment at room temperature, the cells are then stimulated with a TLR7 ligand (gardiquimod at a final concentration of 7.5 μM), TLR8 ligand (R848 at a final concentration of 15.9 μM) or TLR9 ligand (ODN2006 at a final concentration of 5 nM) to activate NF-κB and AP-1 which induce the production of SEAP. After a 22 hour incubation at 37° C., 500 CO2, SEAP levels are determined with the addition of HEK-Blue™ Detection reagent (Invivogen), a cell culture medium that allows for detection of SEAP, according to manufacturer's specifications.
The target in assay [2] is human TLR7 (Homo sapiens (Human), UniProt Q9NYK1). The experiment in a line: TLR7 inhibition reporter assay (HEK-Blue SEAP). The format is cell-based. The conditions noted are these: HEK-Blue cells overexpressing human TLR7, gardiquimod 7.5 μM stimulation.
Description: as §1
Assay [3] has as its target human TLR9 (Homo sapiens (Human), UniProt Q9NR96). The experiment in a line: TLR9 inhibition reporter assay (HEK-Blue SEAP).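 Note: SEAP driven by IFN-β minimal promoter carrying five NF-κB and AP-1 sites, 22 h at 37 °C, compounds 0.05 nM–50 µM, inhibition scaled between agonist-plus-DMSO and reference-inhibitor wells.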
[4] abbreviates: read-out: TLR8 IC50; HEK-Blue cells overexpressing human TLR8, R848 15.9 μM stimulation, SEAP reporter.
Setting [5] is: read-out: TLR9 IC50; HEK-Blue cells overexpressing human TLR9, ODN2006 5 nM stimulation, SEAP reporter.

Sequence of human TLR8 (Q9NR97 27-1041): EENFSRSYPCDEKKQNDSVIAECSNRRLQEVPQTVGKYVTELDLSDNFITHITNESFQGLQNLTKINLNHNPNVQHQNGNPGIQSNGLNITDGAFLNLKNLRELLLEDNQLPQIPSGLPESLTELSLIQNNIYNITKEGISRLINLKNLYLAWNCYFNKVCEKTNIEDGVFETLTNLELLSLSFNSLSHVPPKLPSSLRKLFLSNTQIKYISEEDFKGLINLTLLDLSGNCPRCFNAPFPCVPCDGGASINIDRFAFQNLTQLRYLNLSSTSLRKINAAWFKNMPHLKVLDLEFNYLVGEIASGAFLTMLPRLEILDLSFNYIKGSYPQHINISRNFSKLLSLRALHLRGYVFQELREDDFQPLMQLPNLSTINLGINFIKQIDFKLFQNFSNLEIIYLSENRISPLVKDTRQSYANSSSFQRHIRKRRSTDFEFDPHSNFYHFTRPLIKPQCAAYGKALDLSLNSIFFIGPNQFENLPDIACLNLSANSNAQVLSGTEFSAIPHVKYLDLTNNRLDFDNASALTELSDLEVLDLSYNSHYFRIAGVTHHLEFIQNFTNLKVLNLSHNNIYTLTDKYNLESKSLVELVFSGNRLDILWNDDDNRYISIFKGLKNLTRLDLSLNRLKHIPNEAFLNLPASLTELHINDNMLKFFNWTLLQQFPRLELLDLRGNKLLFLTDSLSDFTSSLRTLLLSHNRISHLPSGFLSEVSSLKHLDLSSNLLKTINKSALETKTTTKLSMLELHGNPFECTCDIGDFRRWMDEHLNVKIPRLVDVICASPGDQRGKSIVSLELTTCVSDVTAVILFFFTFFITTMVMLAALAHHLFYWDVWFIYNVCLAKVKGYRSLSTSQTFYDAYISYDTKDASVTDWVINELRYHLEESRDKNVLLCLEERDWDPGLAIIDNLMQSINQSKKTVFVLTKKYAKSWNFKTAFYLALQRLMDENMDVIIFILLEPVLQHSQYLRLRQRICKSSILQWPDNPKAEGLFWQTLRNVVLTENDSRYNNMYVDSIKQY
Sequence of human TLR9 (Q9NR96 26-1032): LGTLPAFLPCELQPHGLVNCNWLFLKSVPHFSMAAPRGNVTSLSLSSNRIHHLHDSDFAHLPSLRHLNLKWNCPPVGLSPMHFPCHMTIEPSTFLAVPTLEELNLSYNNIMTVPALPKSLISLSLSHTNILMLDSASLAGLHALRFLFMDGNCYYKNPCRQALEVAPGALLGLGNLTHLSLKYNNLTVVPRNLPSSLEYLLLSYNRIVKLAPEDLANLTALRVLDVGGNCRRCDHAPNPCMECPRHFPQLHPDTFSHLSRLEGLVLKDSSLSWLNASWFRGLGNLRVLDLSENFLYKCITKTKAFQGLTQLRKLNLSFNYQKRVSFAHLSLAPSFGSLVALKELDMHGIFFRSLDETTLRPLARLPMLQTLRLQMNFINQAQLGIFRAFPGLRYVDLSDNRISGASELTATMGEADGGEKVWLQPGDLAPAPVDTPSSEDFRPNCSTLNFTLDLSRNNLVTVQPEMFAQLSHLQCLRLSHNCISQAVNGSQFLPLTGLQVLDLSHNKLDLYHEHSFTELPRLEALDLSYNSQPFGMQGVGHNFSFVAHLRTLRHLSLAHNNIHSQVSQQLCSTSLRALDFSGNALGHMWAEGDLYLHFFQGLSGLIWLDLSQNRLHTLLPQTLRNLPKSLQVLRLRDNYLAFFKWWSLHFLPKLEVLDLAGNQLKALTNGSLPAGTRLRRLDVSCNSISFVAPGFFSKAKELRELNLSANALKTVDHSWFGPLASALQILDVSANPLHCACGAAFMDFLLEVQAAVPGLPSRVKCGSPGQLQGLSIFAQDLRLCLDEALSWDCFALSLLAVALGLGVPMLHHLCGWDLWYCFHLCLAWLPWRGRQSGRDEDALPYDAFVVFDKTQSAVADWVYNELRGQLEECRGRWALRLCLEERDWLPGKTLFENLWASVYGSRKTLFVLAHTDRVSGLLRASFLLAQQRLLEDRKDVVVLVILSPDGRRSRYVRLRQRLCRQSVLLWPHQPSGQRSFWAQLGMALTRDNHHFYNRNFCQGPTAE
Sequence of human TLR7 (Q9NYK1 27-1049): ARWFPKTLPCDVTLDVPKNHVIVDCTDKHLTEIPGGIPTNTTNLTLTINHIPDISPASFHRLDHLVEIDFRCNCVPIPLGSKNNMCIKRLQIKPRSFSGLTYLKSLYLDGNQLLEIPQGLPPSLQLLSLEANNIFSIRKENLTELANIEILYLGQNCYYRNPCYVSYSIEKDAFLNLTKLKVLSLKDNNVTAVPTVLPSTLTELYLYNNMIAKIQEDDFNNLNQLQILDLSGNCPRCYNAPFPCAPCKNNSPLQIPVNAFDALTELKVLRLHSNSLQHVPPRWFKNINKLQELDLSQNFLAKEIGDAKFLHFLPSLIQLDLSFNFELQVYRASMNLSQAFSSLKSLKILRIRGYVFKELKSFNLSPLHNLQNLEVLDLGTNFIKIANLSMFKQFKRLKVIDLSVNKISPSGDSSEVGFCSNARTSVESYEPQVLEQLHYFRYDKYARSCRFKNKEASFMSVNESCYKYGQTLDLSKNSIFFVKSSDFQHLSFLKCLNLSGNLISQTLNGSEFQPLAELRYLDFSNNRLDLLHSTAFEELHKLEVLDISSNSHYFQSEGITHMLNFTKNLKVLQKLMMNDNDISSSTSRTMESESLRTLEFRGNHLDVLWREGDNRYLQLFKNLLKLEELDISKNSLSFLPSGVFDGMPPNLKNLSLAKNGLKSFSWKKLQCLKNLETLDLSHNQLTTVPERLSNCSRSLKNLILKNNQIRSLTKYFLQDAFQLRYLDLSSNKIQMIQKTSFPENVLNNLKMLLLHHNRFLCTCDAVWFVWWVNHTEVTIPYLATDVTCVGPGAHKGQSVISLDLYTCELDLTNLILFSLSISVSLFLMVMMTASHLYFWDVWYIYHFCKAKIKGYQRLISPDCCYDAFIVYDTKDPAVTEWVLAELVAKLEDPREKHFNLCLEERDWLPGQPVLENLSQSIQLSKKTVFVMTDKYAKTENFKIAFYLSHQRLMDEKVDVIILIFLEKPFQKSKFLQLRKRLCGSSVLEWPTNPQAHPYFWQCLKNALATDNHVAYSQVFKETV

Take `COc1cc(-c2[nH]c3cnc(N4CCN(CC(C)(C)O)CC4)c(F)c3c2C(C)C)cn2ncnc12` [Example 364]: the IC50 in assay [1] (setting [4]) is 0.38 nM; in assay [2], 2.7 nM; in assay [3] (setting [5]), 8700 nM.
For `COc1cc(-c2[nH]c3cnc(N4CCC(NCC(C)(C)O)CC4)c(F)c3c2C(C)C)cn2ncnc12` [Example 156] the same measures were 0.26 nM, 0.79 nM and 6430 nM.
As to `Cc1c(-c2[nH]c3cnc(N4CCN(CC(N)=O)C[C@H]4C)c(F)c3c2C(C)C)cn2ncnc2c1C` [Example 464], the half-maximal inhibitory concentration (IC50) was 2.6 nM in assay [1] (read-out: TLR8 IC50; HEK-Blue cells overexpressing human TLR8; R848 15.9 μM stimulation; SEAP reporter), 7.3 nM in assay [2] and 44000 nM in assay [3] (read-out: TLR9 IC50; HEK-Blue cells overexpressing human TLR9; ODN2006 5 nM stimulation; SEAP reporter).
On to `COc1cc(-c2[nH]c3cnc(N4CCNCC4)c(C)c3c2C(C)C)cn2ncnc12` [Example 213, 6-(3-isopropyl-4-methyl-5-(piperazin-1-yl)-1H-pyrrolo [2,3-c]pyridin-2-yl)-8-methoxy-[1,2,4]triazolo[1,5-a]pyridine], for which the half-inhibitory concentration (IC50) in assay [1] (setting [4]) was determined as 3 nM; in assay [2], 1.5 nM; in assay [3] (setting [5]), 517 nM.
On the same counts, the results for `COc1cc(-c2[nH]c3cnc(C4CCC(NC5CCOCC5)CC4)c(C)c3c2C(C)C)cn2ncnc12` (stereo not drawn) [Example 176] are 18 nM, 16 nM and 325 nM.
On the same counts, the results for `CNCC(=O)N1CCN(c2ncc3[nH]c(-c4cc(OC)c5ncnn5c4)c(C(C)C)c3c2Cl)CC1` [Example 291] are 4.9 nM, 3 nM and 494 nM.
On the same counts, the results for `COc1cc(-c2[nH]c3cnc(C4CCC(N5CC6(COC6)C5)CC4)c(F)c3c2C(C)C)cn2ncnc12` (stereo not drawn) [Example 161] are 4.6 nM, 2.4 nM and 293 nM.
As for `Cc1cc(-c2[nH]c3cnc(C4CCC(NC5COC5)CC4)c(F)c3c2C(C)C)cn2ncnc12` (stereo not drawn) [Example 80], the half-inhibitory concentration (IC50) in assay [1] (setting [4]) is 0.6 nM; in assay [2], 0.16 nM; in assay [3] (setting [5]), 1830 nM.
On the same counts, the results for `CNC(=O)CN1CCC(c2cc3c(C(C)C)c(-c4cc(OC)c5ncnn5c4)[nH]c3cn2)CC1` [Example 292] are 47 nM, 7 nM and 303 nM.
For `Cc1cc(-c2[nH]c3cnc(C4CCC(NC5(C)COC5)CC4)c(F)c3c2C(C)C)cn2ncnc12` (stereo not drawn) [Example 81] the same measures were 0.61 nM, 0.15 nM and 2170 nM.
Consider `Cc1cc(-c2[nH]c3cnc(C4CCN(CC(N)=O)CC4)c(F)c3c2C(C)C)cn2ncnc12` [Example 125], for which the IC50 in assay [1] (setting [4]) was 6.5 nM; in assay [2], 3.1 nM; in assay [3] (setting [5]), 7030 nM.
Turning to `COc1cc(-c2[nH]c3cnc(N4CCC(NC5CCOCC5)CC4)cc3c2C(C)C)cn2ncnc12` [Example 321], the figures for the concentration for half-maximal inhibition (IC50) in assay [1] (setting [4]), in assay [2] and in assay [3] (setting [5]) were 0.64 nM, 2.8 nM and 1010 nM, respectively.
For `Cc1c(-c2[nH]c3cnc(N4CCN(C5CCOCC5)CC4)c(F)c3c2C(C)C)cn2ncnc2c1C` [Example 431] the same measures were 0.32 nM, 3.5 nM and 8180 nM.
On the same counts, the results for `Cc1cc(-c2[nH]c3cnc(C4CCN(C(C)C)CC4)c(F)c3c2C(C)C)cn2ncnc12` [Example 212] are 3.8 nM, 1.6 nM and 2080 nM.
As for `COc1cc(-c2[nH]c3cnc(C4CCN(CC(F)(F)F)CC4)c(F)c3c2C(C)C)cn2ncnc12` [Example 127], the IC50 in assay [1] (setting [4]) is 150 nM; in assay [2], 47 nM; in assay [3] (setting [5]), more than 50000 nM.
For `COc1cc(-c2[nH]c3cnc(N4CCC(NCC(N)=O)CC4)cc3c2C(C)C)cn2ncnc12` [Example 345], the IC50 in assay [1] (setting [4]) is 13 nM; in assay [2], 11 nM; in assay [3] (setting [5]) it was 712 nM.
For `COc1cc(-c2[nH]c3cnc(N4CCC(NC(C)C)CC4)cc3c2C(C)C)cn2ncnc12` [Example 307] the same measures were 0.85 nM, 3 nM and 657 nM.
Take `COc1cc(-c2[nH]c3cnc(C4CCC(N(CC#N)C5COC5)CC4)c(F)c3c2C(C)C)cn2ncnc12` (stereo not drawn) [Example 115]: the results for the IC50 in assay [1] (setting [4]), in assay [2] and in assay [3] (setting [5]) were 2.4 nM, 1.4 nM and 15800 nM, respectively.
For `Cc1c(-c2[nH]c3cnc(C4CCC(NCC(C)(C)C)CC4)cc3c2C(C)C)cn2ncnc2c1C` (stereo not drawn) [Example 351] the same measures were 5.4 nM, 11 nM and 345 nM.
For `Cc1c(N2CCC(N3CCS(=O)(=O)CC3)CC2)ncc2[nH]c(-c3cc(C)c4ncnn4c3)c(C(C)C)c12` [Example 281], the figures for the half-inhibitory concentration (IC50) in assay [1] (setting [4]), in assay [2] and in assay [3] (setting [5]) were 43 nM, 16 nM and 36400 nM, respectively.
On the same counts, the results for `Cc1c(-c2[nH]c3cnc(N4CC5(CNC5)C4)c(F)c3c2C(C)C)cn2ncnc2c1C` [Example 392, 6-(4-fluoro-3-isopropyl-5-(2,6-diazaspiro[3.3]heptan-2-yl)-1H-pyrrolo[2,3-c]pyridin-2-yl)-7,8-dimethyl-[1,2,4]triazolo[1,5-a]pyridine] are 13 nM, 24 nM and 8840 nM.
On the same counts, the results for `COc1cc(-c2[nH]c3cnc(N4CCC(NCC(C)(C)C)CC4)c(C)c3c2C(C)C)cn2ncnc12` [Example 169] are 0.33 nM, 0.36 nM and 1730 nM.
In the case of `Cc1c(N2CCC(NC3CCOCC3)CC2)ncc2[nH]c(-c3cc(C)c4ncnn4c3)c(C(C)C)c12` [Example 265], the half-inhibitory concentration (IC50) in assay [1] (setting [4]) came to 0.42 nM; in assay [2] it was 0.36 nM; in assay [3] (setting [5]), 1020 nM.
Regarding `CCN(C)C1CCN(c2ncc3[nH]c(-c4cn5ncnc5c(C)c4C)c(C(C)C)c3c2C)CC1` [Example 55], the half-inhibitory concentration (IC50) in assay [1] (setting [4]) was 1.3 nM; in assay [2], 1.3 nM; in assay [3] (setting [5]), 769 nM.
Turning to `COc1cc(-c2[nH]c3cnc(C4CCN(C5COC5)CC4)cc3c2C(C)C)cn2ncnc12` [Example 306], the concentration for half-maximal inhibition (IC50) was found to be 16 nM in assay [1] (setting [4]), 3.9 nM in assay [2] and 786 nM in assay [3] (setting [5]).
With `COCCN1CCN(c2ncc3[nH]c(-c4cn5ncnc5c(C)c4C)c(C(C)C)c3c2F)CC1` [Example 424], the IC50 in assay [1] (setting [4]) is 0.39 nM; in assay [2], 6.3 nM; in assay [3] (setting [5]) it was 17700 nM.
For `Cc1c(-c2[nH]c3cnc(N4CCN(CCS(C)(=O)=O)CC4)c(F)c3c2C(C)C)cn2ncnc2c1C` [Example 398] the same measures were 1.9 nM, 7.2 nM and 46800 nM.
For `COc1cc(-c2[nH]c3cnc(C4CCC(NCC(C)(C)C)C4)cc3c2C(C)C)cn2ncnc12` (stereo not drawn) [Example 60] the same measures were 1.2 nM, 5 nM and 502 nM.
For `Cc1c(-c2[nH]c3cnc(C4CCC(NC5CCOC5)CC4)cc3c2C(C)C)cn2ncnc2c1C` (stereo not drawn) [Example 349] the same measures were 3.6 nM, 1.1 nM and 344 nM.
Consider `Cc1c(-c2[nH]c3cnc(N4CCC(NC(C)C)CC4)c(C)c3c2C(C)C)cn2ncnc2c1C` [Example 113], for which the IC50 in assay [1] (setting [4]) amounted to 0.57 nM; in assay [2] it was 0.72 nM; in assay [3] (setting [5]), 510 nM.
On the same counts, the results for `CCN(C)C1CCN(c2ncc3[nH]c(-c4cn5ncnc5c(C)c4C)c(C(C)C)c3c2F)CC1` [Example 83] are 1.4 nM, 1.3 nM and 9100 nM.
